Values of other authors as cited in patent publication EP0775491A1, “IMMUNOPOTENTIATOR” (TAYCA CORPORATION, priority 1995, dated 1997).
Read-outs that look alike come from different tables or passages of the source.

Settings: oral administration to rats

Row | Compound | LD50 [mg/kg] | LD50 (female) [mg/kg] | LD50 (male) [mg/kg]
1 | COC(COC(N)=O)C1=C(N2CC2)C(=O)C(C)=C(N2CC2)C1=O (stereo not shown) [Carboquone] | 27.3 |  | 
2 | O=P1(N(CCCl)CCCl)NCCCO1 (stereo not shown) [Cyclophosphide] |  | 118 | 100
3 | O=c1[nH]cc(F)c(=O)[nH]1 [Fluorouracil] | 781 |  | 
